Data set [1] addresses S. aureus cystathionine-γ-lyase (bCSE) (Staphylococcus aureus, UniProt A0A0H3K724). The data set is described as follows: IC50 assay: inhibition of H2S production by purified bCSE, WSP5 fluorescent probe. It counts as biochemical. The method in brief: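 Purified recombinant enzyme (0.02 μM; E. coli-expressed) preincubated 40 min at 30 °C with inhibitor in 50 mM sodium phosphate pH 8.0, 10 μM PLP, 0.1% Tween 20 and 1.2 μM WSP-5. Started with 100 μM L-cysteine; H2S fluorescence (ex 500/em 530 nm) followed 12 h. IC50 from four-parameter fit, mean of ≥2 experiments.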

Data set [2] has as its system P. aeruginosa GIMC5016:PA1840/36/2015. The data set is described as follows: MIC of antibiotics alone and with potentiators, clinical isolate.
Method: Overnight (ON) culture of a specific strain was grown in the liquid Luria–Bertani nutrient medium (LB broth, BD Difco) for 18 h at 37 °C, with agitation at 180 rpm using an Innova 44R orbital shaker (Eppendorf, Hamburg, Germany). After a certain period, 50 µL of the ON culture was transferred into 5 mL of the LB medium and grown for 3 h at 37 °C with agitation. Growth in the liquid medium was assessed by means of turbidity of the suspension, measured using a Densi-La-Meter II densitometer (Erba Lachema s.r.o., Brno, Czech Republic). Then, the bacterial suspension was diluted to the concentration 10^6 cells/mL with sterile LB and used as a seed culture [38, 39].
For the assessment of MICs, 96-well microtiter plates were utilized at 200 µL of a medium per well. Each well was filled with 100 µL of the seed culture. After that, 10 µL of a solution of each tested synthetic compound (potentiators) was added into each experimental well. Finally, 90 µL of twofold serial dilutions of an antibiotic in a sterile LB was added into individual wells.
As a positive control, we set up wells with 100 µL of the bacterial culture and 100 µL of the sterile LB medium. […] Negative-control wells contained 200 µL of the sterile medium. The plates were incubated in a thermostat for 18–20 h at 37 °C. The bacterial growth was assessed as optical density at 600 nm on a CLARIOstar microplate reader (BMG LABTECH GmbH, Ortenberg, Germany)).
Data set [3] has as its system Caco-2 cell monolayer. The data set is described as follows: Caco-2 cell permeability. The format is in vitro ADME. Conditions: Papp (BA) / Papp (AB); listed as lead compound. As for the experimental part: (§1) The culture medium consisted of high-glucose DMEM containing 10% of fetal bovine serum, 4 mM L-glutamine, 1% of a solution of nonessential amino acids (PanEco, Moscow, Russia), 100 U/mL penicillin, and 100 μg/mL streptomycin. The cells were maintained for 21 days at 37 °C and 5% CO2. The medium was refreshed every 3 days. A Lucifer yellow rejection assay was applied to determine cell monolayer integrity. […] The Lucifer yellow rejection value was calculated using the equation: LY % rejection = 100*(1−FIb/FIa), where FIb is the fluorescence in the basolateral compartment and FIa is the fluorescence in the apical compartment. […] Both apical-to-basolateral (AB) and basolateral-to-apical (BA) transport were assessed. For apical-to-basolateral transport, 0.3 mL of a test compound solution was added to the apical side, and 0.8 mL of HBSS with 0.5% of BSA was added to the basolateral side. For basolateral-to-apical transport, 0.8 mL of a test compound solution was added to the basolateral side and 0.3 mL of HBSS with 0.5% of BSA was added to the apical side. The Caco-2 cell monolayers were then incubated for 2 h at 37 °C. The pH values of the apical and basolateral compartments were 7.4. […] The supernatant was transferred to a vial and analyzed by liquid chromatography coupled with tandem MS (LC–MS/MS). The AB (or BA) apparent permeability coefficients (Papp, 10^–6 cm/s) were calculated according to the following formula [40, 41]: Papp = (V × ∆C)/(∆t × A × C0), where V is the volume of the receiver compartment (cm^3), C0 is the initial drug concentration in the donor compartment (μM), ∆C is the concentration in the receiver compartment (μM), ∆t is the incubation time (s), and A is the surface area of the cell monolayer (cm^2). An efflux ratio was calculated by dividing Papp (BA) by Papp (AB). All compounds were tested in duplicate.
On the technique in general: Caco-2 monolayers are a common model of the intestinal barrier.

Data set [4] is described as follows: Caco-2 cell permeability. The format is in vitro ADME. As to conditions: human. As for the experimental part:
as §1

A short description of data set [5]: in vitro. It counts as in vitro ADME. Conditions: human, plasma, pH 7.4, Fraction bound fb. As for the experimental part: Plasma protein binding was assessed using RED device inserts with built-in cellulose acetate dialysis membranes (molecular weight cutoff: 8 kDa). The final concentration of the test compound in human plasma was 5 μM. The samples were prepared by placing 300 μL of human plasma into the plasma compartment of the RED device and 500 μL of phosphate-buffered saline (pH 7.4) into the buffer compartment. The RED device was fixed to a shaker, placed in a CO2 (5%) incubator, and incubated for 6 h at 37 °C. After an equilibration step, 100 μL aliquots were taken from each compartment; 100 μL of plasma was added to the buffer compartment aliquot and 100 μL of buffer was added to the plasma compartment aliquot. After mixing, 600 μL of acetonitrile containing an internal standard was added. […] All compounds were tested in duplicate. Fraction bound fb was determined via the following equation: fb (%) = [1 − (Cb/Cp)] × 100, where Cb is the concentration of an analyte in the buffer compartment (μM), and Cp is the concentration of the analyte in the plasma compartment (μM).

[6] abbreviates: P. aeruginosa GIMC5016:PA1840/36/2015, potentiator 50 µg/mL.

Sequence of S. aureus cystathionine-γ-lyase (bCSE) (A0A0H3K724 entry or part of it): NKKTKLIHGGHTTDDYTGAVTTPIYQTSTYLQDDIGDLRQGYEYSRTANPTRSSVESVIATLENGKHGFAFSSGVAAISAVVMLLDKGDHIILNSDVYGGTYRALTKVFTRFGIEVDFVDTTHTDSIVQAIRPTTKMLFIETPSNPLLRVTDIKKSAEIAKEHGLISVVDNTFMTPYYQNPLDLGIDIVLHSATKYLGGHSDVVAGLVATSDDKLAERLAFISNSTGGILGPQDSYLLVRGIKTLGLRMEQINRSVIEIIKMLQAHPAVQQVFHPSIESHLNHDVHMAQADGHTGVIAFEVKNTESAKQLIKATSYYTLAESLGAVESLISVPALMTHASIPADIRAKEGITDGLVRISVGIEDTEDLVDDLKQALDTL

On to `O=C(O)c1cc2ccccc2n1Cc1cccc2ccccc12` [Compound 2a], for which, in data set [1] (IC50 (uM), bCSE enzymatic IC50, rounded, repeated in Table S13), the IC50 (as a rule, the concentration at which inhibition is half-maximal) came out at 65 µM. Also, the midpoint of inhibition in data set [1] (IC50 (uM), bCSE enzymatic IC50, rounded, repeated in Table S14), the IC50, lay at 65 µM. This compound registered an IC50 in data set [1] (IC50 (uM), bCSE enzymatic IC50, rounded, repeated in Table S15) of 65 µM. In addition, the IC50 in data set [1] (IC50 biochemical assay bCSE, purified bCSE 0.02 μM, 100 μM L-cysteine, WSP5 probe, mean ± SD) was determined as 64.6 ± 3.1 µM. Also, in data set [2] (P. aeruginosa GIMC5016:PA1840/36/2015, piperacillin + tazobactam, potentiator 50 µg/mL), the “MIC of Tacillin in combination with potentiator” value turned out to be 32 µg/mL. In addition, in data set [2] (setting [6]), the “MIC of Cefepim in combination with potentiator” value amounted to 32 µg/mL, the “MIC of Gentamicin in combination with potentiator” value was over 512 µg/mL and the “MIC of Meropenem in combination with potentiator” value was found to be 8 µg/mL. Further, in data set [3], the Efflux ratio result is on record as “less than 2.0”. Moreover, the efflux ratio (usually a quotient of directional permeabilities that is used to spot active efflux) at 2 h, 10 μM in data set [4] (Caco-2, Papp (BA) / Papp (AB)) is 1.13. In data set [4] (Caco-2, 10 μM, 2 h, pH 7.4), the Papp A→B (in general, the apparent permeability from the apical to the basolateral side of a cell layer) at 2 h, 10 μM was determined as 43.3 ± 2.8 ×10⁻⁶ cm/s and the Papp B→A (in general, the apparent permeability from the basolateral to the apical side of a cell layer) at 2 h, 10 μM amounted to 49.1 ± 6 ×10⁻⁶ cm/s. The fraction unbound (commonly the share of the substance not bound to proteins or other matrix) at 6 h, 5 μM in data set [5] is under 0.01.

Values taken from publication PMC10671052, “Naphthyl-Substituted Indole and Pyrrole Carboxylic Acids as Effective Antibiotic Potentiators—Inhibitors of Bacterial Cystathionine γ-Lyase” (International Journal of Molecular Sciences, 2023).
